Test results as given in ChEMBL document CHEMBL1201862, “PubChem BioAssay data set” (2004).
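The compound was tested at five concentrations on cells cultured in 96-well plates, with a 48-hour exposure period. GI50: concentration for 50% inhibition of growth.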 The source made the active and inactive calls. No stated cut-off is given here; in the data, active = GI50 up to about 1.1 µM and inactive = higher.

Assays:
Test in all cases: growth of human tumour cells (NCI), 48 h
BT-549 = tested on: BT-549
DLD-1 = tested on: DLD-1
M19-MEL = tested on: M19-MEL
HOP-18 = tested on: HOP-18
DMS-114 = tested on: DMS-114
SNB-78 = tested on: SNB-78
KM-20L2 = tested on: KM-20L2
LXFL 529 = tested on: LXFL 529
RXF 631 = tested on: RXF 631

| SMILES | GI50 (BT-549) | GI50 (DLD-1) | GI50 (M19-MEL) | GI50 (SNB-78) | GI50 (KM-20L2) | GI50 (LXFL 529) | further results |
| --- | --- | --- | --- | --- | --- | --- | --- |
| CN(C)CCCc1cccnc1 | > 100 µM (inactive) | – | – | – | – | – | – |
| Nc1nc(N)c(Cn2ccnc2)c(O)n1 | > 100 µM (inactive) | – | – | – | – | – | – |
| COc1ccc(CC2C(=O)NC(C)C(=O)N(C)C3C(=O)N(C)C(Cc4ccc(O)c(c4)Oc4ccc(cc4)C3O)C(=O)NC(C)C(=O)NC(C)C(=O)N2C)cc1 (stereo not drawn) | < 0.01 µM (active) | 0.321 µM (active) | 0.013 µM (active) | 0.00188 µM (active) | 0.0246 µM (active) | – | GI50 (HOP-18): 0.00195 µM (active); GI50 (DMS-114): 0.00145 µM (active) |
| O=C(O)[C@H](NS(=O)(=O)c1ccc(F)cc1)c1ccccc1 | – | > 100 µM (inactive) | > 100 µM (inactive) | > 100 µM (inactive) | > 100 µM (inactive) | > 100 µM (inactive) | GI50 (HOP-18): > 100 µM (inactive); GI50 (DMS-114): > 100 µM (inactive) |
| Cc1nc2ccccc2c(=O)n1-c1n[nH]c2ccccc12 | > 100 µM (inactive) | – | – | – | – | – | – |
| CN/C(=N/C#N)NCc1ccccc1 | – | > 100 µM (inactive) | > 100 µM (inactive) | > 100 µM (inactive) | > 100 µM (inactive) | > 100 µM (inactive) | GI50 (DMS-114): > 100 µM (inactive) |
| C=CCOC1=C(OC(C)=O)C(=O)OC1C1COC(C)(C)O1 (stereo not drawn) | 43.1 µM (inactive) | – | – | – | – | – | – |
| O=[N+]([O-])c1ccc2sc(/C=N/c3ccccn3)cc2c1 | 85.1 µM (inactive) | – | – | – | – | – | – |
| CC1(C)C2CCC(N)(C2)C1N (stereo not drawn) | > 100 µM (inactive) | – | – | – | – | – | – |
| Cc1nc2c(=O)n(-c3ccccc3)c(=O)n(-c3ccccc3)c2o1 | > 100 µM (inactive) | – | – | – | – | – | – |
| CC12CC(=O)NN=C1c1ccccc1C2 (stereo not drawn) | – | > 100 µM (inactive) | > 100 µM (inactive) | > 100 µM (inactive) | > 100 µM (inactive) | – | GI50 (DMS-114): > 100 µM (inactive) |
| COC(=O)C(=NNc1ccccc1[N+](=O)[O-])C(=O)OC | – | – | > 100 µM (inactive) | – | > 100 µM (inactive) | > 100 µM (inactive) | GI50 (HOP-18): > 100 µM (inactive) |
| CCOC(=O)C1CC(C(=O)c2ccccc2)N2c3ccccc3-c3ccccc3C12 (stereo not drawn) | 57.3 µM (inactive) | – | – | – | – | – | – |
| CC(NC1=CC(=O)c2cccnc2C1=O)C(O)c1ccccc1 (stereo not drawn) | 1.45 µM (inactive) | – | – | – | – | – | – |
| N=C(N)NS(=O)(=O)c1ccc(NC(=O)c2ccc3nc4ccccc4c(Nc4ccc(S(=O)(=O)N=C(N)N)cc4)c3c2)cc1 | > 100 µM (inactive) | – | – | – | – | – | – |
| CC(C)(C)c1cc(C(C)(C)C)c2c(c1O)OC(=O)CS2 | 8.32 µM (inactive) | – | – | – | – | – | – |
| NC1N=C(c2ccc(Cl)cc2)C2=C(N1)c1ccccc1CC2 (stereo not drawn) | > 100 µM (inactive) | – | – | – | – | – | – |
| O=C(Cn1c(=O)oc2ccc(C(=O)c3ccccc3Cl)cc21)c1ccc([N+](=O)[O-])cc1 | 19.1 µM (inactive) | – | – | – | – | – | – |
| Cc1nc2ccccc2nc1CC(=O)C(=O)Nc1ccc(Cl)cc1Cl | – | > 100 µM (inactive) | > 100 µM (inactive) | > 100 µM (inactive) | > 100 µM (inactive) | > 100 µM (inactive) | GI50 (RXF 631): > 100 µM (inactive) |
| CC1OC(OC2C(CO)OC(O[C@H]3CC[C@@]4(C)C(=CC[C@H]5[C@@H]6C[C@@H]7O[C@]8(CC[C@@H](C)CN8)[C@@H](C)[C@@H]7[C@@]6(C)CC[C@@H]54)C3)C(O)C2O)C(O)C(O)C1O (stereo partly drawn) | – | 55 µM (inactive) | > 100 µM (inactive) | > 100 µM (inactive) | 28.9 µM (inactive) | > 100 µM (inactive) | GI50 (HOP-18): 43.3 µM (inactive); GI50 (DMS-114): > 100 µM (inactive) |
| NC(=O)c1c(-c2ccccc2)c(-c2ccccc2)cc2c(=O)c3ccccc3[nH]c12 | – | 35.3 µM (inactive) | 27.6 µM (inactive) | 22.3 µM (inactive) | 21 µM (inactive) | 16.1 µM (inactive) | GI50 (RXF 631): 27.4 µM (inactive); GI50 (DMS-114): 21.8 µM (inactive) |
| CC1=CC(O)C(C(O)(C(F)(F)F)C(F)(F)F)C(C)(C)C1 (stereo not drawn) | > 10 µM (inactive) | – | – | – | – | – | – |
| COc1cc2c[n+](C)c3c4cc(OC)c(OC)cc4c(OC)cc3c2cc1OC | 3.92 µM (inactive) | – | – | – | – | – | – |
| COc1cc2cccc(/N=C\c3cccc(OC)c3OC(C)C)c2cc1OC | – | 25.6 µM (inactive) | 21.3 µM (inactive) | 44.7 µM (inactive) | 51.8 µM (inactive) | 14.7 µM (inactive) | GI50 (DMS-114): 17 µM (inactive) |
| O=C(O)CN1CCNCCN(CC(=O)O)CC1 | > 100 µM (inactive) | – | – | – | – | – | – |
| Cc1cccc(/N=N/c2ccc(O)c(CN(C)C)c2)c1 | 17.2 µM (inactive) | – | – | – | – | – | – |
| COc1ccc([N+]2=NC(c3ccc([N+](=O)[O-])cc3)=NN(c3ccccc3)C2)cc1 | – | 26.5 µM (inactive) | – | > 100 µM (inactive) | 49.4 µM (inactive) | 27.1 µM (inactive) | GI50 (DMS-114): 40.1 µM (inactive) |
| NC(=S)N/N=C(/CCN1CCCC1)CC(C1=C(O)C2=CCCCC2OC1=O)c1ccccc1 (stereo not drawn) | – | > 100 µM (inactive) | > 100 µM (inactive) | > 100 µM (inactive) | > 100 µM (inactive) | > 100 µM (inactive) | GI50 (HOP-18): > 100 µM (inactive) |
